# Laboratory results from ChEMBL document CHEMBL1145651, “A constituent of Pterocarpus marsupium, (-)-epicatechin, as a potential antidiabetic agent” (1983).
# What was measured:
# Assay type in all cases: functional
# Conditions in all cases: route intraperitoneal
# Rattus norvegicus [1] = assay: Antihyperglycemic activity in Wistar rat assessed as decrease in alloxan-induced blood glucose level at 30 mg/kg, ip pretreated 24 hrs before alloxan challenge
# Rattus norvegicus [2] = assay: Antihyperglycemic activity in Wistar rat assessed as decrease in alloxan-induced blood glucose level at 30 mg/kg, ip administered 72 to 288 hrs after alloxan challenge
# Rattus norvegicus [3] = assay: Antihyperglycemic activity in Wistar rat assessed as decrease in alloxan-induced blood glucose level at 30 mg/kg, ip administered 72 hrs after alloxan challenge
# Rattus norvegicus [4] = assay: Antihyperglycemic activity in Wistar rat assessed as decrease in alloxan-induced blood glucose level at 30 mg/kg, ip administered 120 hrs after alloxan challenge
# Rattus norvegicus [5] = assay: Antihyperglycemic activity in Wistar rat assessed as decrease in alloxan-induced blood glucose level at 30 mg/kg, ip administered 288 hrs after alloxan challenge
# Rattus norvegicus [6] = assay: Antihyperglycemic activity in Wistar rat assessed as decrease in alloxan-induced blood glucose level at 30 mg/kg, ip administered 168 hrs after alloxan challenge
smiles,measurement,setting,value
Oc1cc(O)c2c(c1)O[C@H](c1ccc(O)c(O)c1)[C@H](O)C2 [(-)-EPICATECHIN],Activity,Rattus norvegicus [1],111 mg/dL
same,Activity,Rattus norvegicus [2],129 mg/dL
same,Activity,Rattus norvegicus [3],138 mg/dL
same,Activity,Rattus norvegicus [4],120 mg/dL
same,Activity,Rattus norvegicus [5],117 mg/dL
same,Activity,Rattus norvegicus [6],128 mg/dL
